Measured values published in article PMC10760875, “Synthesis of alnustone-like diarylpentanoids via a 4 + 1 strategy and assessment of their potential anticancer activity” (Turkish Journal of Chemistry, 2023).
pIC50: −log10 of the molar value.

How the values were obtained:
[1] = tested on: HPAEpiC cells (pulmonary alveolar epithelial cells); experiment: MTT cytotoxicity assay, healthy HPAEpiC; type: cell-based; conditions: Homo sapiens, Epithelial cell, 48 h, read-out: IC50 against HPAEpiC (healthy cells)
Protocol: (§1) GBM (U87-MG), breast cancer (MCF-7), prostate carcinoma (PC-3), and lung epithelium (HPAEpiC) cell lines were used to assess the cytotoxic action potential of compounds 5a–5l. The cells were grown in a single layer in flasks in appropriate medium containing 10% fetal bovine serum (FBS), 1% penicillin/streptomycin, and 1% L-glutamine at 37 °C and 5% CO2 to maintain the pH balance. Cells that had reached 70%–80% confluence were used in the experiments.
(§2) The 3-(4,5-dimethylthiazol-2-yl)-2,5-diphenyltetrazolium bromide (MTT) method is a widely used colorimetric method for the quantitative determination of cell viability. It is based on the reduction of the tetrazolium ring of the yellow dye MTT by living cells. As a result of the reduction, the tetrazolium ring breaks down to form a dark blue-violet formazan compound. Cell viability is then determined spectrophotometrically. The viability of untreated cells is assumed to be 100% and the viability of treated cells is determined as a percentage (%) according to those cells.
(§3) To each 96-well plate, 2 × 10^4 cells were seeded and treated with 6 different concentrations (3.125, 6.25, 12.5, 25, 50, and 100 mg/L) of the 12 tested compounds, and then the plates were incubated in a CO2 oven at 37 °C for 48 h. At the end of the incubation, 10 μL of the MTT mixture was added to each well using a pipette, which was then gently mixed for 1 min on a circular mixer. The cells were incubated in a CO2 oven at 37 °C for 3–4 h. The formazan that formed as a result of the incubation was seen as dark crystals at the bottoms of the wells. The culture medium was carefully aspirated from each well without dispersing the cell layer, and then 100 μL of dimethyl sulfoxide (DMSO) was added to each well and gently stirred on an orbital stirrer to dissolve the formazan crystals. Each sample was read at a wavelength of 570 nm in a spectrophotometer and absorbance values were obtained. A wavelength of 630 nm was used as the reference wavelength.
(§4) Percent viability and cytotoxicity values for each dose administered were calculated according to the following formulas:
(§5) • % Viability = (absorbance of the sample/absorbance of the control) × 100 • % Cytotoxicity = [1 – (absorbance of the sample/absorbance of the control)] × 100
(§6) The IC50 dose, as the concentration of inhibitor that caused a 50% decrease in cell viability, was calculated using Excel regression analysis.
(§7) Human GBM (U87-MG), breast cancer (MCF-7), prostate cancer (PC-3), and pulmonary alveolar epithelial cells (HPAEpiC) cell lines from the American Type Culture Collection (ATCC) were used for the cytotoxicity testing of compounds 5a–5l. The cells were grown as a single layer in appropriate medium containing 10% FBS, 1% penicillin/streptomycin, and 1% L-glutamine at 37 °C and 5% CO2 atmosphere.
(§8) The cytotoxicity analyses of all of the compounds were investigated by determining cell viability based on the colorimetric MTT assay, which was conducted according to the manufacturer’s guide. First, […] were seeded in a 96-well plate and then incubated at 37 °C in a 5% CO2 environment for 24 h. The medium was aspirated the following day, and […] of each concentration of the 12 tested compounds (3.125, 6.25, 12.5, 25, 50, and 100 mg/L) were separately added to each well. The plates were then incubated for 48 h at 37 °C with 5% CO2. Next, 10 μL of MTT solution was added to each well and the plate was incubated for 4 h. The culture medium was aspirated from the wells without dispersing the cell layer and then 100 μL of DMSO was added to each well and stirred on an orbital stirrer to dissolve the formazan crystals. Each sample was read at a wavelength of 570 nm in a spectrophotometer and absorbance values were obtained. A wavelength of 630 nm was used as the reference. Cell viability was expressed as a percentage compared to the untreated cells. All experiments were performed in triplicate.

[2] = tested on: U87-MG cells (human glioblastoma); experiment: MTT cytotoxicity assay, U87-MG; type: cell-based; conditions: for pIC50: Homo sapiens, U-87 MG, MTT, 48 h, read-out: IC50 against U87-MG; for SI, U87-MG cells: SI = IC50 normal cells (HPAEpiC)/IC50 U87-MG
Protocol: as §1, §2, §3, §4, §5, §6, §7, §8

[3] = tested on: U87-MG cells; experiment: Hoechst 33258 nuclear staining, U87-MG; type: cell-based, human; conditions: IC50 concentration, 48 h
Protocol: (§9) Cell morphological characteristics were examined via the fluorescent Hoechst 33258 staining approach. […] The nuclei in the untreated group were stained a less brilliant blue and the color was uniform. After 48 h of treatment at the IC50 concentrations of compounds 5a and 5i, the blue emission light in the apoptotic cells was considerably brighter than in the control cells. Many compound-treated cells also had condensed chromatin, and some had the shape of apoptotic bodies, which is one of the basic features of apoptotic cells (Figures 5 and 6). In line with these findings, it was previously reported that the diarylpentanoid BP-M345 exerted potential as an anticancer drug, showing its antiproliferative activity by preventing mitosis through microtubule disruption and inducing cancer cell death. Likewise, diarylpentanoid derivatives have led to intrinsic apoptosis in cancer cells by upregulating proapoptotic proteins such as Bad and Bax and downregulating prosurvival proteins such as Bcl-2 and Bcl-xL [33]. […]
(§10) Hoechst 33258 staining was used to assess significant morphological changes in the nuclear chromatin of the cells. […] Thereafter, the cells were observed using a Leica DMIRB fluorescence microscope (Leica Microsystems, Wetzlar, Germany). […]

[4] = tested on: MCF-7 cells; experiment: Hoechst 33258 nuclear staining, MCF-7; type: cell-based, human; conditions: IC50 concentration, 48 h
Protocol: as §9, §10

[5] = tested on: PC-3 cells (prostate cancer); experiment: MTT cytotoxicity assay, PC-3; type: cell-based, human; conditions: for SI, PC-3 cells: SI = IC50 normal cells (HPAEpiC)/IC50 PC-3
Protocol: as §1, §2, §3, §4, §5, §6, §7, §8

[6] = tested on: MCF-7 cells (breast cancer); experiment: MTT cytotoxicity assay, MCF-7; type: cell-based, human; conditions: SI = IC50 normal cells (HPAEpiC)/IC50 MCF-7
Protocol: as §1, §2, §3, §4, §5, §6, §7, §8

SMILES | pIC50 [1] | pIC50 [2] | SI, U87-MG cells [2] | Nuclear morphology by Hoechst 33258 staining, U87-MG [3] | Nuclear morphology by Hoechst 33258 staining, MCF-7 [4] | pIC50 ([5]; Homo sapiens, PC-3, 48 h, MTT, 48 h, read-out: IC50 against PC-3) | SI, PC-3 cells [5] | SI, MCF-7 cells [6]
O=C(/C=C/c1ccccc1)CCc1ccccc1 [Compound 5a, (E)-1,5-diphenylpent-1-en-3-one] | 4.07 | 3.97 | 0.79 | apoptotic cells with fragmented nuclei | apoptotic cells with fragmented nuclei | 4.30 | 1.69 | 7.45
COc1ccc(/C=C/C(=O)CCc2ccc(O)cc2)cc1 [Compound 5i, (E)-5-(4-hydroxyphenyl)-1-(4-methoxyphenyl)pent-1-en-3-one] | 4.83 | 3.63 | 0.06 | apoptotic cells with fragmented nuclei | apoptotic cells with fragmented nuclei |  | 1.53 | 2.52
